Results reported in patent US12138336B2, “Personal care composition comprising water insoluble solid organic compound” (The Procter & Gamble Company, priority 2018, dated 2024).
Converted amounts (≈) assume the structure as drawn. Read-outs that look alike come from different tables or passages of the source.

Columns and labels:
[1] = Water solubility at 25° C.; format: physicochemical; conditions: for solubility: water, 25 °C
[2] = Di-electric constant, BI-870 Liquid Dielectric Constant Meter; format: physicochemical; conditions: third liquid compounds; room temperature (23.1-23.4° C.)
Procedure: Dielectric constant is measured at room temperature (23.1 ˜23.4° C.) using BI-870 Liquid Dielectric Constant Meter (Brookhaven Instruments, Corp., New York).

[3] = Crystals of the solid organic compound present in the composition at 25° C. or not; format: physicochemical; conditions: added dissolved in ethanol/water mixture; cationic surfactant and high melting point fatty compounds; especially at higher amount
[4] = known property; cited from earlier work
[5] = solid organic compounds, 25° C.
[6] = third liquid compounds, read-out: Solubility in H2O
[7] = first liquid oily compounds, read-out: Solubility in H2O

With `Cc1cc(C2CCCCC2)n(O)c(=O)c1` [Ciclopirox, reference compound] the “Water Solubility” value [1, 5] was 1410 µg/mL.

Work on `OCCOc1ccccc1` [Phenoxyethanol] yielded a solubility [1, 6] of 26000 µg/mL (≈ 188000 µM).

Molecule `Cc1cc(CC(C)CC(C)(C)C)n(O)c(=O)c1` (stereo not shown) [Piroctone, reference compound] has a solubility ([1]; solid organic compounds, 25° C., read-out: Water Solubility) of 240 µg/mL (≈ 1010 µM).

For `CCCCCCC(C=O)=Cc1ccccc1` [Hexyl Cinnamic Aldehyde], the solubility [1, 7] was 2.75 µg/mL (≈ 12.7 µM).

With `OCc1ccccc1` [Benzyl Alcohol] the solubility [1, 6] was 43000 µg/mL (≈ 398000 µM) and the Di-electric constant [2] was 13.69.

`CCCCCC1C(=O)CCC1CC(=O)OC` (stereo not shown) [Methyl Dihydro Jasmonate] showed a solubility [1, 7] of 91.7 µg/mL (≈ 405 µM).

With `C=CC(C)CCCC(C)(C)O` (stereo not shown) [Dihydro Myrcenol] the “Solubility in H2O” value ([1]; first liquid oily compounds) was “Negligible (lower than 0.1) g/L”.

With `Cc1cc(C2CCCCC2)n(O)c(=O)c1` [Ciclopirox Olamine, reference compound] the “Water Solubility” value [1, 5] was 4450 µg/mL.

In the case of `Cc1cc(CC(C)CC(C)(C)C)n(O)c(=O)c1.NCCO` (stereo not shown) [Piroctone Olamine], the “Crystal formation in aqueous hair conditioning compositions” value [3] is listed as “forms crystals”, the “Water Solubility” value [1, 5] is listed as 30 µg/mL and the “Solubility in water, in words” value [4] is listed as “very limited solubility in water”.

With `CCCCCCCCCCCC(=O)N(C)CC(=O)OC(C)C` [Isoropyl N-Lauroyl Sarcosinate] the “Solubility in H2O” value ([1]; first liquid oily compounds) was “Negligible (lower than 0.1) g/L”.
